Where two headings read alike, the source gives them in different places.
Tests used:
Test in all cases: Kinase selectivity profile assay
Assay type in all cases: biochemical
MRCKa/CDC42BPA = target: T1, MRCKa/CDC42BPA (Homo sapiens, UniProt Q5VT25); conditions: read-out: Residual enzymatic activity
T1 construct: purchased Reaction Biology Corporation
Summary of the method: (§1)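 Radiometric kinase assay run by a standard protocol. Unbound phosphate was removed by washing filters in phosphoric acid, and product radioactivity gave percent remaining kinase activity versus DMSO vehicle reactions. Run in duplicate.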

PKG1b = target: T2, PKG1b (Homo sapiens, UniProt Q13976); conditions: 500 nM; relative to DMSO; read-out: Residual enzymatic activity
T2 construct: purchased Reaction Biology Corporation
Summary of the method: as §1

MLCK2/MYLK2 = target: T3, MLCK2/MYLK2 (Homo sapiens, UniProt Q9H1R3); conditions: 500 nM; relative to DMSO; read-out: Residual enzymatic activity
T3 construct: purchased Reaction Biology Corporation
Summary of the method: as §1

ALK = target: T4, ALK (Homo sapiens, UniProt Q9UM73); conditions: 500 nM; relative to DMSO; read-out: Residual enzymatic activity
T4 construct: purchased Reaction Biology Corporation
Summary of the method: as §1

CAMK2b = target: T5, CAMK2b (Homo sapiens, UniProt Q13554); conditions: 500 nM; relative to DMSO; read-out: Residual enzymatic activity
T5 construct: purchased Reaction Biology Corporation
Summary of the method: as §1

RIPK5 = target: T6, RIPK5 (Homo sapiens, UniProt Q6XUX3); conditions: 500 nM; relative to DMSO; read-out: Residual enzymatic activity
T6 construct: purchased Reaction Biology Corporation
Summary of the method: as §1

PKCepsilon = target: T7, PKCepsilon (Homo sapiens, UniProt Q02156); conditions: 500 nM; relative to DMSO; read-out: Residual enzymatic activity
T7 construct: purchased Reaction Biology Corporation
Summary of the method: as §1

ALK3/BMPR1A = target: T8, ALK3/BMPR1A (Homo sapiens, UniProt P36894); conditions: 500 nM; relative to DMSO; read-out: Residual enzymatic activity
T8 construct: purchased Reaction Biology Corporation
Summary of the method: as §1

WEE1 = target: T9, WEE1 (Homo sapiens, UniProt P30291); conditions: 500 nM; relative to DMSO; read-out: Residual enzymatic activity
T9 construct: purchased Reaction Biology Corporation
Summary of the method: as §1

JNK3 = target: T10, JNK3 (Homo sapiens, UniProt P53779); conditions: 500 nM; relative to DMSO; read-out: Residual enzymatic activity
T10 construct: purchased Reaction Biology Corporation
Summary of the method: as §1

GRK5 = target: T11, GRK5 (Homo sapiens, UniProt P34947); conditions: 500 nM; relative to DMSO; read-out: Residual enzymatic activity
T11 construct: purchased Reaction Biology Corporation
Summary of the method: as §1

CAMKK2 = target: T12, CAMKK2 (Homo sapiens, UniProt Q96RR4); conditions: 500 nM; relative to DMSO; read-out: Residual enzymatic activity
T12 construct: purchased Reaction Biology Corporation
Summary of the method: as §1

TXK = target: T13, TXK (Homo sapiens, UniProt P42681); conditions: for remaining activity at 0.5 µM: 500 nM, relative to DMSO, read-out: Residual enzymatic activity
T13 construct: purchased Reaction Biology Corporation (Malvern, PA, USA)
T13 sequence (P42681 1-527): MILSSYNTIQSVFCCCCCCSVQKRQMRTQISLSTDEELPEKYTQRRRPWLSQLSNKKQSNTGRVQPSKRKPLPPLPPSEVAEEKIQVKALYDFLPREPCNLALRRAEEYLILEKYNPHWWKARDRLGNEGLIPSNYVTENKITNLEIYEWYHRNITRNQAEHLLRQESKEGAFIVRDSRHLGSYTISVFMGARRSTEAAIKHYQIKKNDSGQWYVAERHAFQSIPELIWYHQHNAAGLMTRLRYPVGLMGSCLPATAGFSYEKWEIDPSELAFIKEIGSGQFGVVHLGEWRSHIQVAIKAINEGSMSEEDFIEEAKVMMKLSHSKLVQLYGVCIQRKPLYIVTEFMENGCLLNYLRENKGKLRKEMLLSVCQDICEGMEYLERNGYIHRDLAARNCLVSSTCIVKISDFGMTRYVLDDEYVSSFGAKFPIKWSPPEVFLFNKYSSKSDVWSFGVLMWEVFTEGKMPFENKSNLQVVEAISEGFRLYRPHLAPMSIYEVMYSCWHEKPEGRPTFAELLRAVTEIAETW
Summary of the method: as §1

GRK4 = target: T14, GRK4 (Homo sapiens, UniProt P32298); conditions: 500 nM; relative to DMSO; read-out: Residual enzymatic activity
T14 construct: purchased Reaction Biology Corporation
Summary of the method: as §1

GLK/MAP4K3 = target: T15, GLK/MAP4K3 (Homo sapiens, UniProt Q8IVH8); conditions: 500 nM; relative to DMSO; read-out: Residual enzymatic activity
T15 construct: purchased Reaction Biology Corporation
Summary of the method: as §1

ALK4/ACVR1B = target: T16, ALK4/ACVR1B (Homo sapiens, UniProt P36896); conditions: 500 nM; relative to DMSO; read-out: Residual enzymatic activity
T16 construct: purchased Reaction Biology Corporation
Summary of the method: as §1

PDGFRb = target: T17, PDGFRb (Homo sapiens, UniProt P09619); conditions: for remaining activity at 0.5 µM: 500 nM, relative to DMSO, read-out: Residual enzymatic activity
T17 construct: purchased Reaction Biology Corporation (Malvern, PA, USA)
T17 sequence (P09619 33-1106): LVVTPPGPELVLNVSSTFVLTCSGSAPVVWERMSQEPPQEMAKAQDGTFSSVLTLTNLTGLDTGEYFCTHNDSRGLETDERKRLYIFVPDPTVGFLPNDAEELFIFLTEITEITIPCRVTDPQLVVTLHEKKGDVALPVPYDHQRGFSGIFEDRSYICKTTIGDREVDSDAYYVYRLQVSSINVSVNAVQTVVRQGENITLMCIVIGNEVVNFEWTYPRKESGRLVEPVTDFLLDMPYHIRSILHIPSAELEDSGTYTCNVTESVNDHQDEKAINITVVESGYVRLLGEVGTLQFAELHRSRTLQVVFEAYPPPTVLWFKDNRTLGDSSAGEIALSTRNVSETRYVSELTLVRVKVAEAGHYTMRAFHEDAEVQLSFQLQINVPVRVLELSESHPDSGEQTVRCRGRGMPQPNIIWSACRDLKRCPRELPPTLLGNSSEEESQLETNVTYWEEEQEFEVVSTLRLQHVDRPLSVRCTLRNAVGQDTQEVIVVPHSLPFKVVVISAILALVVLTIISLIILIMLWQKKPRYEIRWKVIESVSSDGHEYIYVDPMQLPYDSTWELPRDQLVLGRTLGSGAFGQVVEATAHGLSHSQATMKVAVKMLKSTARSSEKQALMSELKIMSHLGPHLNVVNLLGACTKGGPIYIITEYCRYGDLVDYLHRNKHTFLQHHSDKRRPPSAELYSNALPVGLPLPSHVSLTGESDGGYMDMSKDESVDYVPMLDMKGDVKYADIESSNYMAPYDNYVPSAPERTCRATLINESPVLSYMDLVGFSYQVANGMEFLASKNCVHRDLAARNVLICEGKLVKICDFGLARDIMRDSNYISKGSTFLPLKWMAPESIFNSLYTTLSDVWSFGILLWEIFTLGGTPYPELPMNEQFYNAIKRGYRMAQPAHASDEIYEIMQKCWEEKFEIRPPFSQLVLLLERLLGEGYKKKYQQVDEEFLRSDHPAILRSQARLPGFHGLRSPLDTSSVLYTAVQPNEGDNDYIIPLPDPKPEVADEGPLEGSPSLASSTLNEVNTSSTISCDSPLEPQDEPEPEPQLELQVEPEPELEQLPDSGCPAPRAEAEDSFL
Summary of the method: as §1

CK1g3 = target: T18, CK1g3 (Homo sapiens, UniProt Q9Y6M4); conditions: 500 nM; relative to DMSO; read-out: Residual enzymatic activity
T18 construct: purchased Reaction Biology Corporation
Summary of the method: as §1

PLK1 = target: T19, PLK1 (Homo sapiens, UniProt P53350); conditions: 500 nM; relative to DMSO; read-out: Residual enzymatic activity
T19 construct: purchased Reaction Biology Corporation
Summary of the method: as §1

DDR1 = target: T20, DDR1 (Homo sapiens, UniProt Q08345); conditions: for remaining activity at 0.5 µM: 500 nM, relative to DMSO, read-out: Residual enzymatic activity
T20 construct: purchased Reaction Biology Corporation (assay service)
T20 sequence (Q08345 19-913): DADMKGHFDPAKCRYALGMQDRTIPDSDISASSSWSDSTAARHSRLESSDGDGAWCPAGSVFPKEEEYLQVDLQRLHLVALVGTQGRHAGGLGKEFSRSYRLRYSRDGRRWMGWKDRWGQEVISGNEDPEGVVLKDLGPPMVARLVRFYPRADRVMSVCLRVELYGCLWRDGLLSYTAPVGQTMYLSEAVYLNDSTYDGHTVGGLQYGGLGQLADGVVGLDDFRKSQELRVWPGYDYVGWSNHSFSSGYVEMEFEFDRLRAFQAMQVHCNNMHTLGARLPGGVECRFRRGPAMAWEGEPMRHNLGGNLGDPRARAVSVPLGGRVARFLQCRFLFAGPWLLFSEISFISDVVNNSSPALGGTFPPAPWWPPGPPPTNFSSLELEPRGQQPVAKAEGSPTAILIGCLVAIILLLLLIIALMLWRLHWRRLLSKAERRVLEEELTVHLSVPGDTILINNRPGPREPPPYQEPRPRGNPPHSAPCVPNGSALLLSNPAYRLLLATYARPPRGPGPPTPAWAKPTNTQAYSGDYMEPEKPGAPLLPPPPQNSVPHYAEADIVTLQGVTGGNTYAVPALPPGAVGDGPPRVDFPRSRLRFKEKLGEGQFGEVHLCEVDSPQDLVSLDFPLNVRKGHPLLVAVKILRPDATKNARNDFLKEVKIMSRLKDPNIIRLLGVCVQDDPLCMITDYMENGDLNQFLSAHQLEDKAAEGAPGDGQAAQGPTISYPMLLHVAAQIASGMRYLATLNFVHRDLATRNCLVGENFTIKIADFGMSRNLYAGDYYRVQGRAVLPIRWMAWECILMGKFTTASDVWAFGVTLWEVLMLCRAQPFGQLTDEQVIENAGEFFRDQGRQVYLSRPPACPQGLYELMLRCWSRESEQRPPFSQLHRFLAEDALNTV
Summary of the method: as §1

HGK/MAP4K4 = target: T21, HGK/MAP4K4 (Homo sapiens, UniProt O95819); conditions: 500 nM; relative to DMSO; read-out: Residual enzymatic activity
T21 construct: purchased Reaction Biology Corporation
Summary of the method: as §1

SGK3/SGKL = target: T22, SGK3/SGKL (Homo sapiens, UniProt Q96BR1); conditions: 500 nM; relative to DMSO; read-out: Residual enzymatic activity
T22 construct: purchased Reaction Biology Corporation
Summary of the method: as §1

FMS = target: T23, FMS (Homo sapiens, UniProt P07333); conditions: 500 nM; relative to DMSO; read-out: Residual enzymatic activity
T23 construct: purchased Reaction Biology Corporation
Summary of the method: as §1

FLT1/VEGFR1 = target: T24, FLT1/VEGFR1 (Homo sapiens, UniProt P17948); conditions: 500 nM, relative to DMSO; for remaining activity at 0.5 µM: read-out: Residual enzymatic activity
T24 construct: purchased Reaction Biology Corporation
T24 sequence (P17948 27-1338): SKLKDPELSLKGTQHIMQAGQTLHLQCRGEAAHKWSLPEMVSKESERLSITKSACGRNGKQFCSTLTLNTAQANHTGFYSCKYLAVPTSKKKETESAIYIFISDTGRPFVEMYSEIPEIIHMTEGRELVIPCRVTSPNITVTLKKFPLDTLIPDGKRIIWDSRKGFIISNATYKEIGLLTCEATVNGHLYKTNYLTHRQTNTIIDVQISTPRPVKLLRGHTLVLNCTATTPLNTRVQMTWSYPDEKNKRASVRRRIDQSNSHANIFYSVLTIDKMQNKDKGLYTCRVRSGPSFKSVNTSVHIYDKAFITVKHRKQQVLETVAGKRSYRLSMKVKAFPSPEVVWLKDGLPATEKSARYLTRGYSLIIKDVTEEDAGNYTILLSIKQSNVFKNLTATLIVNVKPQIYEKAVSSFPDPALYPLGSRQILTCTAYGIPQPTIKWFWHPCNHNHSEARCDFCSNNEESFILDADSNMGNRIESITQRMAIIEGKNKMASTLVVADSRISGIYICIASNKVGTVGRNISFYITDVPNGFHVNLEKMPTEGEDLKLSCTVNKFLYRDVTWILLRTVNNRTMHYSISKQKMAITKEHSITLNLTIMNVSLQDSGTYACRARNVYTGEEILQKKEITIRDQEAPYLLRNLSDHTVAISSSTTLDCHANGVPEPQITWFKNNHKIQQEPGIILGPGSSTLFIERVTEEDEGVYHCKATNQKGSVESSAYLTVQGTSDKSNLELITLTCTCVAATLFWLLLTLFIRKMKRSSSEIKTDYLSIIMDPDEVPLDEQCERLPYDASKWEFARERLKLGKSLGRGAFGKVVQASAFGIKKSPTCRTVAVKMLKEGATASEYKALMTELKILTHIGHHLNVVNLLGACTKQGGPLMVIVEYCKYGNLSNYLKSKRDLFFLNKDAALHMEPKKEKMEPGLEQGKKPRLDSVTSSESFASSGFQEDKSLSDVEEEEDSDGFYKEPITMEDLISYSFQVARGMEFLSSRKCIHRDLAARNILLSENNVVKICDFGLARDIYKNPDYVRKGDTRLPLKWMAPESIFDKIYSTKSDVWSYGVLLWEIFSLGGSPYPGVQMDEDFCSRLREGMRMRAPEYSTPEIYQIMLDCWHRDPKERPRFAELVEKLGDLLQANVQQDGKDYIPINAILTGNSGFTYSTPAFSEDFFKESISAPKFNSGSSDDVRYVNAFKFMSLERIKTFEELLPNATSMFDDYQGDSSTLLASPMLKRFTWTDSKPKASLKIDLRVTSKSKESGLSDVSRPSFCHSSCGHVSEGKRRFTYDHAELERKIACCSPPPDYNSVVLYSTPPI
Summary of the method: as §1

PIM2 = target: T25, PIM2 (Homo sapiens, UniProt Q9P1W9); conditions: 500 nM; relative to DMSO; read-out: Residual enzymatic activity
T25 construct: purchased Reaction Biology Corporation
Summary of the method: as §1

PDGFRa = target: T26, PDGFRa (Homo sapiens, UniProt P16234); conditions: for remaining activity at 0.5 µM: 500 nM, relative to DMSO, read-out: Residual enzymatic activity
T26 construct: purchased Reaction Biology Corporation (Malvern, PA, USA)
T26 sequence (P16234 24-1089): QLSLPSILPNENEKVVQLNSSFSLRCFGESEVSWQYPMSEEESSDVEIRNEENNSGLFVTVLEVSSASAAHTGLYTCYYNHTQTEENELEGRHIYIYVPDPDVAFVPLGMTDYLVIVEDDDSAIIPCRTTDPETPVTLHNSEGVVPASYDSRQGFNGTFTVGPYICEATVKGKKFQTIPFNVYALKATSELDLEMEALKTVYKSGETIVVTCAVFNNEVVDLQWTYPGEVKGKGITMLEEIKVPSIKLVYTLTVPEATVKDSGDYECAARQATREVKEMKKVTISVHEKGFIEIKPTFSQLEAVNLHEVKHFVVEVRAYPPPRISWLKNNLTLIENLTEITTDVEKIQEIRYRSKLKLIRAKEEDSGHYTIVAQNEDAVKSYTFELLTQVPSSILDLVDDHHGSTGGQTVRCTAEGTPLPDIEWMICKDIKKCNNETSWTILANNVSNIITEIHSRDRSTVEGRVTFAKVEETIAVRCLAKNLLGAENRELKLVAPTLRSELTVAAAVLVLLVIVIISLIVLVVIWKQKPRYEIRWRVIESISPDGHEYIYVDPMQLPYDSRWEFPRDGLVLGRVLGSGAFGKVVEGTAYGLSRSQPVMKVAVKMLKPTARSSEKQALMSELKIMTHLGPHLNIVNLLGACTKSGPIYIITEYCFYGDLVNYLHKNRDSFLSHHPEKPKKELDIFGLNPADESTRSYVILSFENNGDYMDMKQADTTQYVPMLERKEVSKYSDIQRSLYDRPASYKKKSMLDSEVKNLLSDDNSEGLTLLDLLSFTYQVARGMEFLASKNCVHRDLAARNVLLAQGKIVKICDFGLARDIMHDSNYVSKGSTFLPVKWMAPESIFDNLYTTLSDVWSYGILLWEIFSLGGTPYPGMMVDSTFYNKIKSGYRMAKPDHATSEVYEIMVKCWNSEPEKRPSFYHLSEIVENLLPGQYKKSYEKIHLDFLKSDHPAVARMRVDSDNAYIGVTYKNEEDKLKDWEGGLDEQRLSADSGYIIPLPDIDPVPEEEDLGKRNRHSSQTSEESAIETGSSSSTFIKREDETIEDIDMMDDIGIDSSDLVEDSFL
Summary of the method: as §1

P38g = target: T27, P38g (Homo sapiens, UniProt P53778); conditions: 500 nM; relative to DMSO; read-out: Residual enzymatic activity
T27 construct: purchased Reaction Biology Corporation
Summary of the method: as §1

NEK9 = target: T28, NEK9 (Homo sapiens, UniProt Q8TD19); conditions: 500 nM; relative to DMSO; read-out: Residual enzymatic activity
T28 construct: purchased Reaction Biology Corporation
Summary of the method: as §1

GRK7 = target: T29, GRK7 (Homo sapiens, UniProt Q8WTQ7); conditions: 500 nM; relative to DMSO; read-out: Residual enzymatic activity
T29 construct: purchased Reaction Biology Corporation
Summary of the method: as §1

LYN = target: T30, LYN (Homo sapiens, UniProt P07948); conditions: for remaining activity at 0.5 µM: 500 nM, relative to DMSO, read-out: Residual enzymatic activity
T30 construct: purchased Reaction Biology Corporation (assay service)
T30 sequence (P07948 whole entry): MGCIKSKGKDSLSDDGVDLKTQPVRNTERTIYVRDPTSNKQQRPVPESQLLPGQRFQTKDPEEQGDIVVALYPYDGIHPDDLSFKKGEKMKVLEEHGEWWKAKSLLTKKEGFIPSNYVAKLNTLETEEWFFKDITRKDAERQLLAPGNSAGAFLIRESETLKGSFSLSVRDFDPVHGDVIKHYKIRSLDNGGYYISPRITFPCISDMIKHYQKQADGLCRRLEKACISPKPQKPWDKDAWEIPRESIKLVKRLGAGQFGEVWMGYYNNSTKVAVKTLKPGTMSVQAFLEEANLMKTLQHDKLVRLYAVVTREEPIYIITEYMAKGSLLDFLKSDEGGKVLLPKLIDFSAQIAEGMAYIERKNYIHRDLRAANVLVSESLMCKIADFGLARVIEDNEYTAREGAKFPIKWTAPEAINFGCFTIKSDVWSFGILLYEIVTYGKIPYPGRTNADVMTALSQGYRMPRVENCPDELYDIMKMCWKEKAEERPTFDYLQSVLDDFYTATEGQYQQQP
Summary of the method: as §1

TNK1 = target: T31, TNK1 (Homo sapiens, UniProt Q13470); conditions: 500 nM; relative to DMSO; read-out: Residual enzymatic activity
T31 construct: purchased Reaction Biology Corporation
Summary of the method: as §1

MSSK1/STK23 = target: T32, MSSK1/STK23 (Homo sapiens, UniProt Q9UPE1); conditions: 500 nM; relative to DMSO; read-out: Residual enzymatic activity
T32 construct: purchased Reaction Biology Corporation
Summary of the method: as §1

[1] = 10-dose mode, threefold serial dilution from 10 μM

Structure (SMILES)	remaining activity at 0.5 µM (PKG1b) [%]	remaining activity at 0.5 µM (MLCK2/MYLK2) [%]	remaining activity at 0.5 µM (ALK) [%]	remaining activity at 0.5 µM (CAMK2b) [%]	remaining activity at 0.5 µM (RIPK5) [%]	remaining activity at 0.5 µM (PKCepsilon) [%]	remaining activity at 0.5 µM (ALK3/BMPR1A) [%]	remaining activity at 0.5 µM (WEE1) [%]	remaining activity at 0.5 µM (JNK3) [%]	remaining activity at 0.5 µM (GRK5) [%]	remaining activity at 0.5 µM (CAMKK2) [%]	remaining activity at 0.5 µM (TXK) [%]	remaining activity at 0.5 µM (GRK4) [%]	remaining activity at 0.5 µM (GLK/MAP4K3) [%]	remaining activity at 0.5 µM (ALK4/ACVR1B) [%]	remaining activity at 0.5 µM (PDGFRb) [%]	remaining activity at 0.5 µM (CK1g3) [%]	remaining activity at 0.5 µM (PLK1) [%]	remaining activity at 0.5 µM (DDR1) [%]	remaining activity at 0.5 µM (HGK/MAP4K4) [%]	also measured
COc1cc(Nc2ncc(F)c(Nc3ccc4c(n3)NC(=O)C(C)(C)O4)n2)cc(OC)c1OC [R406, reference compound]	98.6	89.2	41.2	95.8	100	95	120	105	114	96.4	88.8	16.3	96.8	65.8	133	6.1	79.6	60.4	1	75.3	remaining activity at 0.5 µM (MRCKa/CDC42BPA): 104%; remaining activity at 0.5 µM (SGK3/SGKL): 100%; remaining activity at 0.5 µM (FMS): 17.2%; remaining activity at 0.5 µM (FLT1/VEGFR1): 12.4%; remaining activity at 0.5 µM (PIM2): 95.6%; remaining activity at 0.5 µM (PDGFRa): 10.5%; remaining activity at 0.5 µM (P38g): 90.5%; remaining activity at 0.5 µM (NEK9): 2.5%; remaining activity at 0.5 µM (GRK7): 89.6%; remaining activity at 0.5 µM (LYN): 5.7%; remaining activity at 0.5 µM (TNK1): 9.6%; remaining activity at 0.5 µM (MSSK1/STK23): 107%
COc1cc(Nc2ncnc(Nc3cc4c(cn3)NC(=O)C(C)(C)O4)n2)cc(OC)c1OC [MT-SYK-03]	93.9	105	96.5	97.7	104	106	130	108	96.4	103	97.2	35.4	99.7	94.1	125	24.5	72.2	93.4	4.7	78.4	remaining activity at 0.5 µM (MRCKa/CDC42BPA; 500 nM, relative to DMSO): 102%; IC50 (TXK; [1]): 222 nM; IC50 (PDGFRb; [1]): 4.5 nM; IC50 (DDR1; [1]): 1.8 nM; inhibition at 0.5 µM (DDR1; read-out: Inhibition at 500 nM): > 90%; remaining activity at 0.5 µM (SGK3/SGKL): 103%; remaining activity at 0.5 µM (FMS): 51.1%; Residual enzymatic activity (FLT1/VEGFR1): did not inhibit; remaining activity at 0.5 µM (FLT1/VEGFR1): 65.4%; remaining activity at 0.5 µM (PIM2): 97.2%; remaining activity at 0.5 µM (PDGFRa): 46.4%; IC50 (PDGFRa; [1]): 35.9 nM; remaining activity at 0.5 µM (P38g): 101%; remaining activity at 0.5 µM (NEK9): 55.7%; remaining activity at 0.5 µM (GRK7): 99.7%; remaining activity at 0.5 µM (LYN): 12.5%; IC50 (LYN; [1]): 8.8 nM; inhibition at 0.5 µM (LYN; read-out: Inhibition at 500 nM): > 90%; remaining activity at 0.5 µM (TNK1): 44.7%; remaining activity at 0.5 µM (MSSK1/STK23): 106%

— PMC8632988, “Inhibition of SYK and cSrc kinases can protect bone and cartilage in preclinical models of osteoarthritis and rheumatoid arthritis” (Scientific Reports, 2021)
